Measured values from article PMC7346179, “Fe Porphyrin-Based SOD Mimic and Redox-Active Compound, (OH)FeTnHex-2-PyP^4+, in a Rodent Ischemic Stroke (MCAO) Model: Efficacy and Pharmacokinetics as Compared to Its Mn Analogue, (H2O)MnTnHex-2-PyP^5+” (Antioxidants, 2020).

How the values were obtained:
[1] = 2-h PK study in rats that underwent MCAO; format: in vivo
Method: Samples were prepared as described in [10] with modifications to accommodate the small tissue sizes and enhance the detection sensitivity. Quantitative liquid chromatography electrospray-ionization tandem mass spectrometry (LCMS/MS) analysis was performed on a Shimadzu 20A series HPLC (LC)-Applied Biosystems/MDS Sciex API 3200 QTrap or API 4000 QTrap tandem-mass spectrometer (MS/MS) as described earlier. The use of heptafluorobutyric acid (HFBA) mobile phase modifier as an ion-pairing agent increases the overall lipophilicity and volatility, which increases the retention and ionization efficiency of the analytes, affording an abundance of HFBA-associated ions. […] (OH)FeTnBuOE-2-PyP^4+ was prepared as described for other Fe(III) N-alkylpyridylporphyrins and analogous (H2O)MnTnBuOE-2-PyP^5+ [13, 16]. The solvents employed were: A = 95:5 H2O:MeCN (0.1% HFBA); B = MeCN (0.1% HFBA). […] With the chosen solvent system, all four atropoisomers collapsed into a single peak, enhancing the sensitivity of the method to as low as 0.5 nM (nanomoles per L of tissue homogenate). Analyses were performed using a Phenomenex Luna C18 guard cartridge (ID × L, 2 × 4 mm) only. […] Their structures are also shown. […] The response was calculated as the ratio between the standard peak area and the internal standard peak area. Another possible cause for the failure of therapeutics in stroke may be their slow accumulation in the brain, i.e., not being there in time to prevent the burst of reactive species and rapid activation of transcription factors, which perpetuate oxidative stress. We therefore conducted short-term 2-h PK to evaluate how fast post-MCAO our drug gets into the brain. Three rats per compound were subjected to 90 min of transient right MCAO as reported. The first dose of 0.225 mg/kg was given IV via the […] at 5 min after ischemia/reperfusion. The second dose of 0.225 mg/kg was given SC at 30 min after reperfusion. Blood was collected at 2 h and plasma harvested. Rats were perfused with heparin saline (2000 IU/500 mL) until no reddish fluid came out from the right atrium. Then, the liver, and left and right brain were collected and placed on dry ice and stored at -20 °C. Plasma, liver, and brain were analyzed by LCMS/MS.

mice [2] = conditions: mouse, in vivo, cited from earlier work
mice [3] = conditions: cited from earlier work
SOD-deficient E. coli = conditions: higher than MnHex; cited from earlier work
[4] = cited from earlier work
mouse MCAO stroke model = assay: 3-day mouse MCAO efficacy study; format: in vivo, mice
Method: We performed a mouse MCAO study to define a dose of FeHex for a larger rat MCAO study. The 81 C57Bl/6J mice (8–10 weeks old) were subjected to 90 min of MCAO right hemisphere occlusion. Mice were fasted overnight before injury. They were under isoflurane anesthesia during ischemia, and the pericranial temperature was automatically controlled at 37 °C using a surface heating and cooling system. Ischemia was made through a small window on the left temporal bone, and the main trunk of the middle cerebral artery was transiently tied with a fine silk suture for 90 min. Muscle and skin layers were closed after ischemia/reperfusion. Mice were allowed to awake and survive for 3 days. […] Mice were sacrificed under deep anesthesia at 3 days post-ischemia/reperfusion. The brain was quickly frozen in −20 °C 2-methybutane and stored in the freezer for histological analysis. Liver and brain were taken for LCMS/MS analysis of the levels of FeHex. Body weight, rotarod performance, and Corner test were assessed before and 3 days after injury. Neurological deficit (neuroscore) and infarct volume were evaluated at 3 days after injury.
The rotarod test was performed on the day before surgery and 3 days after ischemia/reperfusion. Three trials were performed with a 15-min intra-trial rest. Mice were placed on the rod and then the machine was started. The speed was accelerated from 4 turns/min to 40 turns per min. The latency to fall from the rod was automatically recorded. The data are presented in % and are calculated as [(reading after injury)/(reading before surgery-baseline reading)] × 100. Neurological deficit was assessed based on the neuroscore system we previously used that includes the general status and motor and sensory functions. For the corner test, two clean boards were placed in “V” fashion at an angle of 30° relative to the walking axes and mice were left to walk in towards the apex of the “V”. Mice usually make left turns more frequently when injury is severe enough. The left turn was calculated from the number of left (L) turn/total turns (L + Right turn). Normal animals would have as many left as right turns (50% = normal). When all turns are to the left, the value at y-axis is 100%, the most severe score. Body weight loss is expressed as a difference in body weight at 3 days post-stroke minus body weight on the surgery day.

[5] = 0.225 mg/kg IV twice daily 3 days

## monohydroxo Fe(III) meso-tetrakis(N-n-hexylpyridinium-2yl)porphyrin [FeHex]
[1]; rats after 90-min MCAO, 0.225 mg/kg IV + 0.225 mg/kg SC, 2 h after reperfusion
  level in injured (right) brain hemisphere: ~ 55 nM
[1]; rats after MCAO, 2 h
  liver level relative to MnHex: lower in the liver
  plasma level relative to MnHex: higher in plasma
Mice [2]; ip, 10 mg/kg
  blood pressure drop: does not
Mice [2]
  arterial hypotension in experimental animals: does not cause arterial hypotension
Mice [3]
  toxicity to mice relative to MnHex: less toxic to mice
Mice [3]; mice, 5 mg/kg IP injection
  toxicity / death of mice: no toxicity
SOD-deficient E. coli
  efficacy in SOD-deficient E. coli model relative to MnHex: ~ 2 orders of magnitude
[4]
  log kcat(O2^•−), log of rate constant for catalysis of O2^•− dismutation: 7.53
Mouse MCAO stroke model; [5]
  neuroscore: improved
  p, Corner test vs vehicle: 0.09
  p, body weight change vs vehicle: 0.0347
  p, infarct volume vs vehicle: 0.48
  p, neuroscore vs vehicle: 0.047
  p, rotarod vs vehicle: 0.59
Mouse MCAO stroke model; 0.225 mg/kg IV twice daily 3 days, from 90 min post ischemia/reperfusion
  body weights: improved
Mouse MCAO stroke model; 0.05, 0.225 and 1 mg/kg IV twice daily 3 days
  infarct volume relative to vehicle: No significant change
